Consider 1 molecule from patent US12097380B2, “Shielding of magnetic field as a medical therapy” (Micromed Scientia, Inc., priority 2012, dated 2024).

Test [1] has as its system most sensitive non-small lung cancer cell. To be noted: as reported by Georgiadis et al. 1997, read-out: IC50 to Taxol; cited from earlier work.
Test [2] relates to non-small cell lung cancer cells A549. Description: In vitro growth of A549 cells in the presence of Taxol, iron shielding box vs plastic box (CCK-8 cell viability). The format is cell-based, human. The procedure:
(§1) The surrounding magnetic field shielding device and the plastic box used in this experiment were the same as those described in Example 2 above.
The human non-small cell lung cancer cells (A549) and human breast cancer cell (MCF-7) were supplied by the Cell Resource Center, Shanghai Institute of Life Sciences. The cells were maintained in a monolayer and were grown at 37° C. in an atmosphere of 5% CO2 with moisture in RPMI 1640 medium, supplemented with 10% fetal bovine serum. The medium also contained […] Penicillin and 100 mg/L Streptomycin. The cells at exponentially growing phase were used in the experiments.
(§2) The human non-small cell lung cancer cells (A549) or the human breast cancer cells (MCF-7) were grown in 96 well plates. The growth of non-small cell lung cancer cell line and the breast cancer cell line were investigated while being exposed to environmental magnetic field or being shielded from environmental magnetic field. Each cell culture was separated into three equal portions. The first sample was cultured in a surrounding magnetic field shielded box (an iron shielding box). The second sample was cultured in a plastic box, and the third sample was cultured in the absence of any surrounding box as a control. All of the samples were placed in the incubator with an atmosphere containing 5% CO2 and at a temperature of 37° C. The cell growth rates were examined periodically by harvesting the cells and determining cell viability using the cell counting kit-8 and microplate reader RT-6000. The experiments were continued for four to seven days depending on the cell types and the respective growth rates.
(§3) Cell count kit-8 (CCK-8) ([…] manufactured by Dojindo Molecular Technologies, Inc.) allows sensitive colorimetric assays for the determination of cell viability. […]

For test [3], the system named is Taxol-resistant non-small cell lung cancer cells A549-T24. Description: In vitro growth of Taxol-resistant A549-T24 cells in the presence of Taxol, iron shielding box vs plastic box (CCK-8 cell viability). To be noted: for growth of A549-T24 in the iron shielding box slower than the control cultured in a plastic box: 12 nM Taxol in medium, 37° C., shielded vs unshielded. It counts as cell-based, human.
Text: as §1
The protocol described by Kavallaris et al., J. Clin. Invest., 100(5): 1282-1293 (1997)^[13] was followed to culture taxol-resistant human lung carcinoma cells A549. The human non-small cell lung cancer cells A549 were maintained in RPMI 1640 containing 10% FBS and 1% Penicillin-Streptomycin. For inducing its resistance to Taxol, in a stepwise manner, Taxol was added into the culture medium with periodically increasing its concentration. A549 cells were initially exposed to 3 nM of Taxol, and once normal growth was achieved, cells were maintained at this concentration. In two weeks, the Taxol dose was increased by two-fold, such as 3 nM, 6 nM, 12 nM, until the final drug concentration of 24 nM was achieved to develop Taxol-resistant cells. The obtained cells were maintained at a Taxol concentration of 24 nM. These Taxol-resistant cells were named as A549-T24.
as §2, with “The experiments were continued for four to seven days depending on the cell types and the respective growth rates.” left out
as §3

Each structure is given as a SMILES string.

As for `CC(=O)O[C@H]1C(=O)[C@@]2(C)[C@H]([C@H](OC(=O)c3ccccc3)[C@]3(O)C[C@H](OC(=O)[C@H](O)[C@@H](NC(=O)c4ccccc4)c4ccccc4)C(C)=C1C3(C)C)[C@]1(OC(C)=O)CO[C@@H]1C[C@@H]2O` [Taxol, Paclitaxel], the IC50 in test [1] was 9.9 nM; in test [2] (Homo sapiens, 120 h, A549, under shielding of environmental magnetic field, 5 days, read-out: IC50 of Taxol (drug concentration at which cell growth is suppressed to 50%)) it was approximately 5 nM; in test [3] (Homo sapiens, 96 h, A549-T24, under shielding of surrounding magnetic field, day 4), approximately 10 nM. In test [2] (5 nM Taxol in medium, 37° C., 3 days of incubation, shielded vs unshielded, P<0.001), the “growth of A549 in the iron shielding box slower than the control cultured in a plastic box” value came to 16.3%. Also, in test [2] (5 nM Taxol in medium, 37° C., 5 days of incubation, shielded vs unshielded, P<0.0005), the “growth of A549 in the iron shielding box decreased in comparison to the control cultured in a plastic box” value is reported as 47.3%. Also, the “growth of A549-T24 in the iron shielding box slower than the control cultured in a plastic box” value in test [3] (day 3, P<0.01) stood at 11.2%; in test [3] (day 4, P<0.001), 10.7%.
